According to patent publication US6479435B1, “Diaryl ethers and processes for their preparation and herbicidal and desiccant compositions containing them” (ISK Americas Incorporated, priority 1997, dated 2002):

Columns and labels:
Format in all cases: in vivo
[1] = tested on: common ragweed (Ambrosia artemisiifolia L., AMBEL); experiment: Post-emerge greenhouse herbicide test, phytotoxicity rating; conditions: 14 days after application
Summary of the method: (§1)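 Plants at the 2-3 leaf stage, sown 8-21 days earlier, were track-sprayed post-emergence with compound in acetone plus 0.25% v/v non-ionic surfactant at 63-1000 g ai/ha (187 l/ha). Damage was rated at 14 days on a 0-100 scale (0 none, 100 all plants dead), for both crop injury and weed control.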

[2] = tested on: velvetleaf (Abutilon theophrasti, ABUTH); experiment: Pre-emerge greenhouse herbicide test, phytotoxicity rating; conditions: 14 days after application, rating scale 0-100
Summary of the method: (§2)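 Seeds sown in sandy loam one day before track-sprayer application of acetone solutions at 125–1000 g ai/ha (187 l/ha), then surface-watered to incorporate and bottom-watered. Injury scored visually at 14 days on a 0–100 scale (0 no damage, 100 complete death).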

[3] = tested on: ivyleaf morningglory (Ipomoea hederacea, IPOHE); experiment: as above; conditions: 14 days after application, rating scale 0-100
Summary of the method: as §2

[4] = tested on: green foxtail (Setaria viridis, SETVI); experiment: as above; conditions: 14 days after application, rating scale 0-100
Summary of the method: as §2

[5] = tested on: barnyardgrass (Echinochloa crusgalli, ECHCG); experiment: as above; conditions: 14 days after application, rating scale 0-100
Summary of the method: as §2

[6] = tested on: sicklepod (Cassia obtusifolia, CASOB); experiment: as above; conditions: 14 days after application, rating scale 0-100
Summary of the method: as §2

[7] = tested on: redroot pigweed (Amaranthus retroflexus, AMARE); experiment: as above; conditions: 14 days after application, rating scale 0-100
Summary of the method: as §2

[8] = tested on: common ragweed (Ambrosia artemisiifolia L., AMBEL); experiment: as above; conditions: 14 days after application, rating scale 0-100
Summary of the method: as §2

[9] = tested on: large crabgrass (Digitaria sanguinalis, DIGSA); experiment: as above; conditions: 14 days after application, rating scale 0-100
Summary of the method: as §2

[10] = tested on: Johnsongrass (Sorghum halepense, SORHA); experiment: as above; conditions: 14 days after application, rating scale 0-100
Summary of the method: as §2

[11] = tested on: lambsquarters (Chenopodium album, CHEAL); experiment: as above; conditions: 14 days after application, rating scale 0-100
Summary of the method: as §2

[12] = tested on: velvetleaf (Abutilon theophrasti, ABUTH); experiment: Post-emerge greenhouse herbicide test, phytotoxicity rating; conditions: 14 days after application
Summary of the method: as §1

[13] = tested on: ivyleaf morningglory (Ipomoea hederacea, IPOHE); experiment: as above; conditions: 14 days after application
Summary of the method: as §1

[14] = tested on: green foxtail (Setaria viridis, SETVI); experiment: as above; conditions: 14 days after application
Summary of the method: as §1

[15] = tested on: barnyardgrass (Echinochloa crusgalli, ECHCG); experiment: as above; conditions: 14 days after application
Summary of the method: as §1

[16] = tested on: sicklepod (Cassia obtusifolia, CASOB); experiment: as above; conditions: 14 days after application
Summary of the method: as §1

[17] = tested on: redroot pigweed (Amaranthus retroflexus, AMARE); experiment: as above; conditions: 14 days after application
Summary of the method: as §1

[18] = tested on: large crabgrass (Digitaria sanguinalis, DIGSA); experiment: as above; conditions: 14 days after application
Summary of the method: as §1

[19] = tested on: Johnsongrass (Sorghum halepense, SORHA); experiment: as above; conditions: 14 days after application
Summary of the method: as §1

[20] = tested on: lambsquarters (Chenopodium album, CHEAL); experiment: as above; conditions: 14 days after application
Summary of the method: as §1

Row | SMILES | AMBEL phytotoxicity rating (0-100) ([1]; 63 g al/ha) | AMBEL phytotoxicity rating (0-100) ([1]; 500 g al/ha) | phytotoxicity rating ABUTH ([2]; 125 g ai/ha) | phytotoxicity rating ABUTH ([2]; 500 g ai/ha) | phytotoxicity rating IPOHE ([3]; 125 g ai/ha) | phytotoxicity rating IPOHE ([3]; 500 g ai/ha) | phytotoxicity rating SETVI ([4]; 125 g ai/ha) | phytotoxicity rating SETVI ([4]; 500 g ai/ha) | phytotoxicity rating ECHCG ([5]; 125 g ai/ha) | phytotoxicity rating ECHCG ([5]; 500 g ai/ha) | phytotoxicity rating CASOB ([6]; 125 g ai/ha) | phytotoxicity rating CASOB ([6]; 500 g ai/ha) | phytotoxicity rating AMARE ([7]; 125 g ai/ha) | phytotoxicity rating AMARE ([7]; 500 g ai/ha) | phytotoxicity rating AMBEL ([8]; 125 g ai/ha) | phytotoxicity rating AMBEL ([8]; 500 g ai/ha) | phytotoxicity rating DIGSA ([9]; 125 g ai/ha) | phytotoxicity rating DIGSA ([9]; 500 g ai/ha) | phytotoxicity rating SORHA ([10]; 125 g ai/ha) | phytotoxicity rating SORHA ([10]; 500 g ai/ha) | further results
1 | COc1nc(OC)nc(Oc2cc(-c3nc(C)n(C(F)F)c3Cl)c(F)cc2Cl)n1 [Compound 2-4, 5-chloro-4-(4-chloro-2-fluoro-5-(4,6-dimethoxy-2-triazinyloxy)phenyl)-1-difluoromethyl-2-methylimidazole] | 0 | 0 | 10 | 70 | 10 | 0 | 20 | 95 | 0 | 0 | 0 | 10 | 70 | 100 | 10 | 0 | 0 | 50 | 0 | 40 | phytotoxicity rating CHEAL ([11]; 125 g ai/ha): 70; phytotoxicity rating CHEAL ([11]; 500 g ai/ha): 100; ABUTH phytotoxicity rating (0-100) ([12]; 63 g al/ha): 0; ABUTH phytotoxicity rating (0-100) ([12]; 500 g al/ha): 80; IPOHE phytotoxicity rating (0-100) ([13]; 63 g al/ha): 0; IPOHE phytotoxicity rating (0-100) ([13]; 500 g al/ha): 75; SETVI phytotoxicity rating (0-100) ([14]; 63 g al/ha): 0; SETVI phytotoxicity rating (0-100) ([14]; 500 g al/ha): 50; ECHCG phytotoxicity rating (0-100) ([15]; 63 g al/ha): 0; ECHCG phytotoxicity rating (0-100) ([15]; 500 g al/ha): 0; CASOB phytotoxicity rating (0-100) ([16]; 63 g al/ha): 0; CASOB phytotoxicity rating (0-100) ([16]; 500 g al/ha): 0; AMARE phytotoxicity rating (0-100) ([17]; 63 g al/ha): 0; AMARE phytotoxicity rating (0-100) ([17]; 500 g al/ha): 90; DIGSA phytotoxicity rating (0-100) ([18]; 63 g al/ha): 0; DIGSA phytotoxicity rating (0-100) ([18]; 500 g al/ha): 10; SORHA phytotoxicity rating (0-100) ([19]; 63 g al/ha): 0; SORHA phytotoxicity rating (0-100) ([19]; 500 g al/ha): 50; CHEAL phytotoxicity rating (0-100) ([20]; 63 g al/ha): 0; CHEAL phytotoxicity rating (0-100) ([20]; 500 g al/ha): 70
2 | O=c1n(CCCF)nnn1-c1cc(Oc2ncccn2)c(Cl)cc1F [Compound 6-10, 1-[4-chloro-2-fluoro-5-(2-pyrimidyloxy)phenyl]-4-(3-fluoropropyl)-1,4-dihydro-5-oxo-5H-tetrazole] | 30 | 100 | 100 | 100 | 100 | 100 | 100 | 100 | 100 | 100 | 40 | 100 | 100 | 100 | 100 | 100 | 100 | 100 | 100 | 100 | phytotoxicity rating CHEAL ([11]; 125 g ai/ha): 100; phytotoxicity rating CHEAL ([11]; 500 g ai/ha): 100; ABUTH phytotoxicity rating (0-100) ([12]; 63 g al/ha): 100; ABUTH phytotoxicity rating (0-100) ([12]; 500 g al/ha): 100; IPOHE phytotoxicity rating (0-100) ([13]; 63 g al/ha): 100; IPOHE phytotoxicity rating (0-100) ([13]; 500 g al/ha): 100; SETVI phytotoxicity rating (0-100) ([14]; 63 g al/ha): 30; SETVI phytotoxicity rating (0-100) ([14]; 500 g al/ha): 100; ECHCG phytotoxicity rating (0-100) ([15]; 63 g al/ha): 30; ECHCG phytotoxicity rating (0-100) ([15]; 500 g al/ha): 100; CASOB phytotoxicity rating (0-100) ([16]; 63 g al/ha): 30; CASOB phytotoxicity rating (0-100) ([16]; 500 g al/ha): 100; AMARE phytotoxicity rating (0-100) ([17]; 63 g al/ha): 90; AMARE phytotoxicity rating (0-100) ([17]; 500 g al/ha): 100; DIGSA phytotoxicity rating (0-100) ([18]; 63 g al/ha): 50; DIGSA phytotoxicity rating (0-100) ([18]; 500 g al/ha): 100; SORHA phytotoxicity rating (0-100) ([19]; 63 g al/ha): 0; SORHA phytotoxicity rating (0-100) ([19]; 500 g al/ha): 100; CHEAL phytotoxicity rating (0-100) ([20]; 63 g al/ha): 90; CHEAL phytotoxicity rating (0-100) ([20]; 500 g al/ha): 100
3 | O=c1sc(=Nc2cc(Oc3ncccc3C(F)(F)F)c(Cl)cc2F)n2n1CCCC2 [Compound 7-1, 9-[4-chloro-2-fluoro-5-(3-trifluoromethyl-2-pyridyloxy)phenylimino]-8-thia-1,6-diazabicyclo[4,3,0]nonane-7-one] | 95 | 100 | 90 | 100 | 0 | 0 | 90 | 100 | 0 | 0 | 50 | 10 | 100 | 100 | 80 | 90 | 60 | 90 | 0 | 60 | phytotoxicity rating CHEAL ([11]; 125 g ai/ha): 100; phytotoxicity rating CHEAL ([11]; 500 g ai/ha): 100; ABUTH phytotoxicity rating (0-100) ([12]; 63 g al/ha): 90; ABUTH phytotoxicity rating (0-100) ([12]; 500 g al/ha): 100; IPOHE phytotoxicity rating (0-100) ([13]; 63 g al/ha): 100; IPOHE phytotoxicity rating (0-100) ([13]; 500 g al/ha): 100; SETVI phytotoxicity rating (0-100) ([14]; 63 g al/ha): 20; SETVI phytotoxicity rating (0-100) ([14]; 500 g al/ha): 60; ECHCG phytotoxicity rating (0-100) ([15]; 63 g al/ha): 0; ECHCG phytotoxicity rating (0-100) ([15]; 500 g al/ha): 20; CASOB phytotoxicity rating (0-100) ([16]; 63 g al/ha): 70; CASOB phytotoxicity rating (0-100) ([16]; 500 g al/ha): 20; AMARE phytotoxicity rating (0-100) ([17]; 63 g al/ha): 100; AMARE phytotoxicity rating (0-100) ([17]; 500 g al/ha): 100; DIGSA phytotoxicity rating (0-100) ([18]; 63 g al/ha): 30; DIGSA phytotoxicity rating (0-100) ([18]; 500 g al/ha): 60; SORHA phytotoxicity rating (0-100) ([19]; 500 g al/ha): 30; CHEAL phytotoxicity rating (0-100) ([20]; 63 g al/ha): 100; CHEAL phytotoxicity rating (0-100) ([20]; 500 g al/ha): 100
